According to patent US12364702B2, “Highly active sting protein agonist compound” (ADLAI NORTYE BIOPHARMA CO., LTD., priority 2018, dated 2025):

Legend:
Type in all cases: cell-based
[1] = target: T1, STING HAQ variant (Homo sapiens, UniProt Q86WV6, G230A/R293Q/R71H); experiment: SEAP reporter assay in HEK-Blue ISG KO-STING cells transfected with STING HAQ variant (Method 1); conditions: 24 h, SEAP signal vs 0.5% DMSO
T1 construct: host or cells: HEK-Blue ISG KO-STING cells (Invivogen, hkb-kostg)
T1 sequence (Q86WV6 whole entry R71H/G230A/R293Q): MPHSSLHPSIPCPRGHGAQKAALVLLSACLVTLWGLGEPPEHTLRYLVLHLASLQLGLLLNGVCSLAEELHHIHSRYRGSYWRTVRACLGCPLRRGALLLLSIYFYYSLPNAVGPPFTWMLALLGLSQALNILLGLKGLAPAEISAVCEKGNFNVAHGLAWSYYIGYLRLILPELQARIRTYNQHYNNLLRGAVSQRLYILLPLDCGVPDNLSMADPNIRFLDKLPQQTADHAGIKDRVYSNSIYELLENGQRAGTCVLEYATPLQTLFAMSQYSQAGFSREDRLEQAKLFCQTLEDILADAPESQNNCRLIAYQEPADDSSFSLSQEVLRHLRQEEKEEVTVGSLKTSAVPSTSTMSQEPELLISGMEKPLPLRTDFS
Excerpt: (§1) Activation of STING can be determined using a SEAP reporter assay in HEK-Blue™ ISG KO-STING cells (Invivogen, cat #hkb-kostg) transfected with plasmids expressing STING variants (WT & HAQ) (referred to WO2017/175147A1). STING variants (WT & HAQ) vector were constructed based on STING-232H vector (Origene, RC208418). GFP vector (VT2069) was bought from Youbio. The detailed protocol as follows: HEK-Blue™ ISG KO-STING cells were harvest and seeding into 96 well plate, the final cell number was 0.8×10^5 cells/well. Transfections were prepared using Lipofectamine 2000 (Invitrogen, Cat #11668-027) following the manufacturer's instructions (Lipo2000/DNA=1/10), 20 ul of transfection suspension containing 1 ng STING vector was added to cell culture plate and incubated at 37° C., 5% CO2 for 24 hours. After 24 hours' incubation, compounds were added at proper concentration, and the final DMSO concentration was 0.5%. After 24 h incubation, the supernatant was collected to detect SEAP signal using Great EscAPe SEAP chemiluminescence KIT (Clontech, cat #631738) and cells were collected to detect cell viability using CellTiter-Glo Luminescent Cell Viability Assay (Promega, cat #G7573) following the manufacturer's instructions. The data were described by the ratio of the stimulating signal of compounds to 0.5% DMSO.

[2] = target: STING (Homo sapiens, UniProt Q86WV6); experiment: IFN-β secretion from THP1 by STING activation (hIFNβ ELISA); conditions: THP1 cells, 24 h incubation, IFN-β in supernatant, top dose set according to solubility; for EC50: read-out: hIFNβ ELISA (EC50)
Sequence of STING (Q86WV6 whole entry): as the sequence (Q86WV6 whole entry R71H/G230A/R293Q) above, with H71R, A230G, Q293R counted along it
Method: In this assay, activation of STING by compounds was evaluated by detecting their ability to stimulate the secretion of IFN-β (interferon-beta) from THP1. THP1 was purchased from National Collection of Authenticated Cell Cultures (Cat #TCHu 57). The top dose of compounds was setted according to their solubility. First, Compounds were 3 times diluted with medium, 8-dose points in total. The final DMSO concentration was 0.2%. THP1 during the logarithmic phase was resuspended to 2×10^6 cells/ml in assay medium. The THP1-cell suspension was dispensed into a 96-well U bottom plate containing 50 ul of compound diluted in medium. After 24 h incubation at 37° C., 5% CO2, the supernatant was collected. The concentration of IFN-β in the supernatant was measured using a human IFNβ ELISA KIT (R&D, DY814-05). The data was fitted with GraphPad Prism or XLfit to calculate EC50 values.

[3] = target: T2, STING WT variant (Homo sapiens, UniProt Q86WV6); experiment: SEAP reporter assay in HEK-Blue ISG KO-STING cells transfected with STING WT variant (Method 1); conditions: 24 h, SEAP signal vs 0.5% DMSO
T2 construct: host or cells: HEK-Blue ISG KO-STING cells (Invivogen, hkb-kostg)
Excerpt: as §1

[4] = 1 ng STING vector, compound 5 uM
[5] = 1 ng STING vector, compound 2.5 uM

## CCn1nc(C)cc1C(=O)Nc1nc2cc(C(N)=O)cc(OCCCOC)c2n1CCC[C@@H]1COc2cc(C(N)=O)cc3nc(NC(=O)c4cc(C)nn4CC)n1c23 [Example 2, (R)-3-(3-(5-Carbamoyl-2-(1-ethyl-3-methyl-1H-pyrazole-5-carboxamido)-7-(3-methoxypropoxy)-1H-benzo[d]imidazol-1-yl)propyl)-2-(1-ethyl-3-methyl-1H-pyrazole-5-carboxamido)-3,4-dihydro-5-oxa-1,2a-diazaacenaphthylene-7-carboxamide]
[1]; compound 15.65 uM
  Fold change related to DMSO control HAQ: 2.52
[2]
  hIFNβ ELISA (EC50, μM): inactive
[3]; compound 15.65 uM
  Fold change related to DMSO control WT: 1.99

## CCn1nc(C)cc1C(=O)Nc1nc2cc(C(N)=O)cc(OC)c2n1CCC[C@@H]1COc2cc(C(N)=O)cc3nc(NC(=O)c4cc(C)nn4CC)n1c23 [Example 4, (R)-3-(3-(5-Carbamoyl-2-(1-ethyl-3-methyl-1H-pyrazole-5-carboxamido)-7-methoxy-1H-benzo[d]imidazol-1-yl)propyl)-2-(1-ethyl-3-methyl-1H-pyrazole-5-carboxamido)-3,4-dihydro-5-oxa-1,2a-diazaacenaphthylene-7-carboxamide]
[1]; compound 26.8 uM
  Fold change related to DMSO control HAQ: 10.21
[2]
  hIFNβ ELISA (EC50, μM): inactive
[3]; compound 26.8 uM
  Fold change related to DMSO control WT: 2.22

## CCn1nc(C)cc1C(=O)Nc1nc2cc(C(N)=O)cc(OC)c2n1CCC[C@H]1COc2cc(C(N)=O)cc3nc(NC(=O)c4cc(C)nn4CC)n1c23 [Example 5, (S)-3-(3-(5-carbamoyl-2-(1-ethyl-3-methyl-1H-pyrazole-5-carboxamido)-7-methoxy-1H-benzo[d]imidazol-1-yl)propyl)-2-(1-ethyl-3-methyl-1H-pyrazole-5-carboxamido)-3,4-dihydro-5-oxa-1,2a-diazaacenaphthylene-7-carboxamide]
[1]; compound 22.1 uM
  Fold change related to DMSO control HAQ: 22.85
[2]
  EC50: 3.7 µM
[3]; compound 22.1 uM
  Fold change related to DMSO control WT: 1.41

## CCn1nc(C)cc1C(=O)Nc1nc2cc(C(N)=O)cc(OCCCO)c2n1CCC[C@H]1COc2cc(C(N)=O)cc3nc(NC(=O)c4cc(C)nn4CC)n1c23 [Example 6, (S)-3-(3-(5-carbamoyl-2-(1-ethyl-3-methyl-1H-pyrazole-5-carboxamido)-7-(3-hydroxypropoxy)-1H-benzo[d]imidazol-1-yl)propyl)-2-(1-ethyl-3-methyl-1H-pyrazole-5-carboxamido)-3,4-dihydro-5-oxa-1,2a-diazaacenaphthylene-7-carboxamide]
[1]; compound 57.9 uM
  Fold change related to DMSO control HAQ: 32.88
[2]
  EC50: 4.8 µM
[3]; compound 57.9 uM
  Fold change related to DMSO control WT: 1.71

## CCn1nc(C)cc1C(=O)Nc1nc2cc(C(N)=O)cc(OCCCOC)c2n1CC[C@H]1COc2cc(C(N)=O)cc3nc(NC(=O)c4cc(C)nn4CC)n1c23 [Example 7, (S)-3-(2-(5-carbamoyl-2-(1-ethyl-3-methyl-1H-pyrazole-5-carboxamido)-7-(3-methoxypropoxy)-1H-benzo[d]imidazol-1-yl)ethyl)-2-(1-ethyl-3-methyl-1H-pyrazole-5-carboxamido)-3,4-dihydro-5-oxa-1,2a-diazaacenaphthylene-7-carboxamide]
[1]; compound 80.2 uM
  Fold change related to DMSO control HAQ: 20.29
[2]
  hIFNβ ELISA (EC50, μM): inactive
[3]; compound 80.2 uM
  Fold change related to DMSO control WT: 1.96

## CCn1nc(C)cc1C(=O)Nc1nc2cc(C(N)=O)cc(OCCCOC)c2n1CCCC[C@H]1COc2cc(C(N)=O)cc3nc(NC(=O)c4cc(C)nn4CC)n1c23 [Example 8, (S)-3-(4-(5-carbamoyl-2-(1-ethyl-3-methyl-1H-pyrazole-5-carboxamido)-7-(3-methoxypropoxy)-1H-benzo[d]imidazol-1-yl)butyl)-2-(1-ethyl-3-methyl-1H-pyrazole-5-carboxamido)-3,4-dihydro-5-oxa-1,2a-diazaacenaphthylene-7-carboxamide]
[1]; compound 4.7 uM
  Fold change related to DMSO control HAQ: 8.09
[2]
  hIFNβ ELISA (EC50, μM): inactive
[3]; compound 4.7 uM
  Fold change related to DMSO control WT: 2.08

## CCn1nc(C)cc1C(=O)Nc1nc2cc(C(N)=O)cc(OCCCOC)c2n1CCC[C@H]1COc2cc(C(N)=O)cc3nc(NC(=O)c4c(Br)c(C)nn4CC)n1c23 [Example 9, (S)-2-(4-bromo-1-ethyl-3-methyl-1H-pyrazole-5-carboxamido)-3-(3-(5-carbamoyl-2-(1-ethyl-3-methyl-1H-pyrazole-5-carboxamido)-7-(3-methoxypropoxy)-1H-benzo[d]imidazol-1-yl)propyl)-3,4-dihydro-5-oxa-1,2a-diazaacenaphthylene-7-carboxamide]
[1]; [4]
  Fold change related to DMSO control HAQ: 14.14
[2]
  EC50: 2.6 µM
[3]; [5]
  Fold change related to DMSO control WT: 2.27

## CCn1nc(C)cc1C(=O)Nc1nc2cc(C(N)=O)cc(OCCCOC)c2n1CCC[C@H]1COc2cc(C#N)cc3nc(NC(=O)c4cc(C)nn4CC)n1c23 [Example 11, (S)-1-(3-(7-cyano-2-(1-ethyl-3-methyl-1H-pyrazole-5-carboxamido)-3,4-dihydro-5-oxa-1,2a-diazaacenaphthylen-3-yl)propyl)-2-(1-ethyl-3-methyl-1H-pyrazole-5-carboxamido)-7-(3-methoxypropoxy)-1H-benzo[d]imidazole-5-carboxamide]
[1]; [4]
  Fold change related to DMSO control HAQ: 27.74
[3]; [5]
  Fold change related to DMSO control WT: 1.83

## CCn1nc(C)cc1C(=O)Nc1nc2cc(C(N)=O)cc(OCCCOC)c2n1CCC[C@H]1COc2cc(-c3nn[nH]n3)cc3nc(NC(=O)c4cc(C)nn4CC)n1c23 [Example 26, (S)-2-(1-ethyl-3-methyl-1H-pyrazole-5-carboxamido)-1-(3-(2-(1-ethyl-3-methyl-1H-pyrazole-5-carboxamido)-7-(2H-tetrazol-5-yl)-3,4-dihydro-5-oxa-1,2a-diazaacenaphthylen-3-yl)propyl)-7-(3-methoxypropoxy)-1H-benzo[d]imidazole-5-carboxamide]
[2]
  hIFNβ ELISA (EC50, μM): inactive

## CCn1nc(C)cc1C(=O)Nc1nc2cc(C(N)=O)cc(OCCCN(C)C(=O)CN(C)C)c2n1CCC[C@H]1COc2cc(C(N)=O)cc3nc(NC(=O)c4cc(C)nn4CC)n1c23 [Example 28, (S)-3-(3-(5-carbamoyl-7-(3-(2-(dimethylamino)-N-methylacetamido)propoxy)-2-(1-ethyl-3-methyl-1H-pyrazole-5-carboxamido)-1H-benzo[d]imidazol-1-yl)propyl)-2-(1-ethyl-3-methyl-1H-pyrazole-5-carboxamido)-3,4-dihydro-5-oxa-1,2a-diazaacenaphthylene-7-carboxamide]
[2]
  EC50: 11.7 µM

## CCn1nc(C)c2c1C(=O)Nc1nc3cc(C(N)=O)cc4c3n1[C@@H](CCCn1c(nc3cc(C(N)=O)cc(OCCCOC)c31)NC(=O)c1cc(C)nn1CCCCC2)CO4 [Example 58, (S)-7-Ethyl-24-(3-methoxypropoxy)-9,16-dimethyl-6,18-dioxo-5,6,7,10,11,12,13,14,18,19,26,27,27a,28-tetradecahydro-25H-29-oxa-4,4a1,5,7,8,14a,15,19,20,24b-decaaza-dicyclopenta[11, 12:18,19]indeno[1′,2′:7,8]cyclohenicosa[1,2,3-bc]acenaphthylene-2,22-dicarboxamide]
[2]
  EC50: > 4.3 µM

## CCn1nc(C)c2c1C(=O)Nc1nc3cc(C(N)=O)cc(OCCCOC)c3n1CCC[C@H]1COc3cc(C(N)=O)cc4nc(n1c34)NC(=O)c1cc(C)nn1CCCCC2 [Example 59, (S)-17-ethyl-24-(3-methoxypropoxy)-8,15-dimethyl-6,18-dioxo-5,6,10,11,12,13,14,17, 18, 19, 26, 27, 27a,28-tetradecahydro-25H-29-oxa-4,4a1,5,9,9a,16, 17, 19, 20, 24b-decaazadicyclopenta[11, 12:18,19]indeno[1′,2′:7,8]cyclohenicosa[1,2,3-bc]acenaphthylene-2,22-dicarboxamide]
[2]
  EC50: > 5.6 µM
